According to patent US11739074B2, “Ras inhibitors” (Revolution Medicines, Inc., priority 2019, dated 2023):
Where “and” joins values, the source holds several entries; their conditions need not be identical. Equal entries are not always repeated.

Columns and labels:
[1] = target: KRAS G13D (Homo sapiens, UniProt P01116+P62937, G13D); test: Ras-Raf disruption/FRET/MOA assay, KRAS G13D; assay type: biochemical; details: disruption of BRAF RBD binding, with Cyclophilin A; read-out: KRAS G13D FRET IC50
Source text: (§1) Disruption of B-Raf Ras-Binding Domain (BRAF^RBD) Interaction with K-Ras by Compounds of the Invention (Also Called a FRET Assay or an MOA Assay)
(§2) Note—The following protocol describes a procedure for monitoring disruption of K-Ras G12C (GMP-PNP) binding to BRAF^RBD by a compound of the invention. This protocol may also be executed substituting other Ras proteins or nucleotides, such as K-Ras G12D and K-Ras G13D.
(§3) The purpose of this biochemical assay was to measure the ability of test compounds to facilitate ternary complex formation between a nucleotide-loaded K-Ras isoform and Cyclophilin A; the resulting ternary complex disrupts binding to a BRAF^RBD construct, inhibiting K-Ras signaling through a RAF effector.
(§4) In assay buffer containing 25 mM HEPES pH 7.3, 0.002% Tween20, 0.1% BSA, 100 mM NaCl and 5 mM MgCl2, tagless Cyclophilin A, His6-K-Ras-GMPPNP, and GST-BRAF^RBD were combined in a 384-well assay plate at final concentrations of 25 μM, 12.5 nM, and 50 nM, respectively. Compound was present in plate wells as a 10-point 3-fold dilution series starting at a final concentration of 30 μM. After incubation at 25° C. for 3 hours, a mixture of anti-His Eu-W1024 and anti-GST allophycocyanin was then added to assay sample wells at final concentrations of 10 nM and 50 nM, respectively, and the reaction incubated for an additional 1.5 hours. […] Compounds that facilitate disruption of a K-Ras:RAF complex were identified as those eliciting a decrease in the TR-FRET ratio relative to DMSO control wells.

[2] = test system: AsPC-1 (K-Ras G12D); test: CellTiter-Glo cell viability assay, AsPC-1; assay type: cell-based; details: Homo sapiens, ASPC1, 120 h, AsPC-1, K-Ras G12D, 5-day treatment; read-out: AsPC-1 Cell Viability IC50
Outline: (§5)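 Cells already in plates received compound by direct dispensing. After incubation to day 5, plates sat at room temperature roughly 30 minutes, then ATP-based luminescence was measured and values derived from a four-parameter fit of DMSO-normalized data.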

[3] = target: T1, NRAS G12C (Homo sapiens, UniProt P01111+P62937, G12C); test: Ras-Raf disruption/FRET/MOA assay, NRAS G12C; assay type: biochemical; details: NRAS G12C; read-out: NRAS G12C FRET data IC50
T1 construct: His6
Source text: as §1, §2, §3, §4

[4] = target: KRAS WT (Homo sapiens, UniProt P01116+P62937); test: Ras-Raf disruption/FRET/MOA assay, KRAS WT; assay type: biochemical; details: disruption of BRAF RBD binding, with Cyclophilin A; read-out: KRAS WT FRET IC50
Source text: as §1, §2, §3, §4

[5] = target: KRAS G12C (Homo sapiens, UniProt P01116+P62937, G12C); test: Ras-Raf disruption/FRET/MOA assay, KRAS G12C; assay type: biochemical; details: disruption of BRAF RBD binding, with Cyclophilin A; read-out: KRAS G12C FRET IC50
Source text: as §1, §2, §3, §4

[6] = target: KRAS G12V (Homo sapiens, UniProt P01116+P62937, G12V); test: Ras-Raf disruption/FRET/MOA assay, KRAS G12V; assay type: biochemical; details: disruption of BRAF RBD binding, with Cyclophilin A; read-out: KRAS G12V FRET IC50
Source text: as §1, §2, §3, §4

[7] = target: KRAS G13C (Homo sapiens, UniProt P01116+P62937, G13C); test: Ras-Raf disruption/FRET/MOA assay, KRAS G13C; assay type: biochemical; details: disruption of BRAF RBD binding, with Cyclophilin A; read-out: KRAS G13C FRET IC50
Source text: as §1, §2, §3, §4

[8] = target: KRAS G12D (Homo sapiens, UniProt P01116+P62937, G12D); test: Ras-Raf disruption/FRET/MOA assay, KRAS G12D; assay type: biochemical; details: disruption of BRAF RBD binding, with Cyclophilin A; read-out: KRAS G12D FRET IC50
Source text: as §1, §2, §3, §4

[9] = target: KRAS G12S (Homo sapiens, UniProt P01116+P62937, G12S); test: Ras-Raf disruption/FRET/MOA assay, KRAS G12S; assay type: biochemical; details: disruption of BRAF RBD binding, with Cyclophilin A; read-out: KRAS G12S FRET IC50
Source text: as §1, §2, §3, §4

[10] = test system: AsPC-1 (K-Ras G12D); test: Potency assay: pERK in AsPC-1 cells; assay type: cell-based; details: Homo sapiens, ASPC1; AsPC-1 cells, K-Ras G12D; read-out: pERK EC50 (AsPC-1 KRAS G12D)
[11] = test system: NCI-H358 (K-Ras G12C); test: CellTiter-Glo cell viability assay, H358; assay type: cell-based; details: Homo sapiens, NCI-H358, 120 h, NCI-H358, K-Ras G12C, 5-day treatment; read-out: H358 Cell Viability IC50
Outline: as §5

Sequence of KRAS WT (P01116 1-169 isoform P01116-2 limits assumed): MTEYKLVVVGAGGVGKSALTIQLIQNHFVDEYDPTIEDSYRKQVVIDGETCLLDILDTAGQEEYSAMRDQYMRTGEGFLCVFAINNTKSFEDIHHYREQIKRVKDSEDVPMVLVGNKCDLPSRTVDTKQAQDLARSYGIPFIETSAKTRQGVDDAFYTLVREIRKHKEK
Sequence of KRAS WT (P62937 whole entry): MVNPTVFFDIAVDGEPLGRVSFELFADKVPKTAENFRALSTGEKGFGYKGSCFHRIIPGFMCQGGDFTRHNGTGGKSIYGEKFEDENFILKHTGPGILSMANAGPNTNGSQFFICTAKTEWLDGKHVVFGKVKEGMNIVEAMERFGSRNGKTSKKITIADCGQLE
Sequence of KRAS G12S (P01116 1-169 isoform P01116-2 G12S limits assumed): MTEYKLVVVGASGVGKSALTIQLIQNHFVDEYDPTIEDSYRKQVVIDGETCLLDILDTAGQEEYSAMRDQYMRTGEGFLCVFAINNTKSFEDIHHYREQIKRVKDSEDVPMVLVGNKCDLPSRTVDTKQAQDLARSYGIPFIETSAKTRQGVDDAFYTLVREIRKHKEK
Sequence of KRAS G12S (P62937 whole entry): as the sequence (P62937 whole entry) above
Sequence of KRAS G12D (P01116 1-169 isoform P01116-2 G12D limits assumed): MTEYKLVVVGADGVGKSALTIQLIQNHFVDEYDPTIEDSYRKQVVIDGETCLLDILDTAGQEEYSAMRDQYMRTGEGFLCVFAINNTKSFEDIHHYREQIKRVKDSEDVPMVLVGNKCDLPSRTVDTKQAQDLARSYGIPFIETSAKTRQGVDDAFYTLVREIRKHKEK
Sequence of KRAS G12D (P62937 whole entry): as the sequence (P62937 whole entry) above
T1 sequence (P01111 whole entry G12C): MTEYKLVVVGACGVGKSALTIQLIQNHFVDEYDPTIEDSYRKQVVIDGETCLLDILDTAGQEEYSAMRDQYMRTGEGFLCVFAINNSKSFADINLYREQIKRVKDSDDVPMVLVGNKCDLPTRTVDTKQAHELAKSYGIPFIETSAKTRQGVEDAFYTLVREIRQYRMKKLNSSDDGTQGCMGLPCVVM
T1 sequence (P62937 whole entry): as the sequence (P62937 whole entry) above
Sequence of KRAS G12C (P01116 1-169 isoform P01116-2 G12C limits assumed): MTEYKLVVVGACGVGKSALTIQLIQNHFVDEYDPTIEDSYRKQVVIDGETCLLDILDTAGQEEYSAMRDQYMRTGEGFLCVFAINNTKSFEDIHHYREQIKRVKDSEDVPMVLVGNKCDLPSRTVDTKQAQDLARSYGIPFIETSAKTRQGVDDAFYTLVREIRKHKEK
Sequence of KRAS G12C (P62937 whole entry): as the sequence (P62937 whole entry) above
Sequence of KRAS G13D (P01116 1-169 isoform P01116-2 G13D limits assumed): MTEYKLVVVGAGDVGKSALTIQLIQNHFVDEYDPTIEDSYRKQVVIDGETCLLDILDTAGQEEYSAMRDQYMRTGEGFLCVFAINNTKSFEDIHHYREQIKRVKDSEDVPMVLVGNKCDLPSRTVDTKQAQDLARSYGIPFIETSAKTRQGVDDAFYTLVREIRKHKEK
Sequence of KRAS G13D (P62937 whole entry, the tested form may be a part): as the sequence (P62937 whole entry) above
Sequence of KRAS G12V (P01116 1-169 isoform P01116-2 G12V limits assumed): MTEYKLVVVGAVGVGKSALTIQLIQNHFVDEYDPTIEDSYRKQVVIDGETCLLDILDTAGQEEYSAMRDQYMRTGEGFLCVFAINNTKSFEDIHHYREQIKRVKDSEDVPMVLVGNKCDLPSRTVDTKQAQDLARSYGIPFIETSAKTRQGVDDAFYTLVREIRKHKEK
Sequence of KRAS G12V (P62937 whole entry): as the sequence (P62937 whole entry) above
Sequence of KRAS G13C (P01116 1-169 isoform P01116-2 G13C limits assumed): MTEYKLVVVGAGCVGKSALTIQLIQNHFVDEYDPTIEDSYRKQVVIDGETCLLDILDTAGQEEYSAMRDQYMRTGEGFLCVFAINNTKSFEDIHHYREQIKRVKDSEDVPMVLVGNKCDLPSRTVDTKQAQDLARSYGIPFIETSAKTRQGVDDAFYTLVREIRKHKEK
Sequence of KRAS G13C (P62937 whole entry): as the sequence (P62937 whole entry) above

IC50 [1] [µM] | IC50 [2] [µM] | IC50 [3] | IC50 [4] [µM] | IC50 [6] [µM] | IC50 [8] [µM] | IC50 [9] [µM] | IC50 [11] [µM] | Structure (SMILES) | IC50 [5] [µM] | IC50 [7] [µM] | EC50 [10] [µM]
 | 1 to 10 |  |  |  |  |  | 1 to 10 | CCn1c(-c2cnccc2COC)c2c3cc(ccc31)-c1cccc(c1)C[C@H](NC(=O)[C@H](C(C)C)N(C)C(=O)CCN=C=NCCCN1CCOCC1)C(=O)N1CCC[C@H](N1)C(=O)OCC(C)(C)C2 [17 A and B] | 0.1 to 1 |  | < 5
 | 1 to 10 |  |  |  | 1 to 10 |  | 1 to 10 | CCCN=C=NCCC(=O)N(C)[C@H](C(=O)N[C@H]1Cc2cccc(c2)-c2ccc3c(c2)c(c(-c2cnccc2COC)n3CC)CC(C)(C)COC(=O)[C@@H]2CCCN(N2)C1=O)C(C)C [22 A and B] |  |  | 
 | 1 to 10 |  |  | > 10 |  |  | 1 to 10 | CCn1c(-c2cnccc2COC)c2c3cc(ccc31)-c1cccc(c1)C[C@H](NC(=O)[C@H](C(C)C)N(C)C(=O)CCCN=C=NCCCOC)C(=O)N1CCC[C@H](N1)C(=O)OCC(C)(C)C2 [69 A and B] |  |  | 
> 10 |  | 0.1 to 1 µM and > 10 µM | > 10 | > 10 |  | > 10 |  | CCn1c(-c2cnccc2COC)c2c3cc(ccc31)-c1cccc(c1)C[C@H](NC(=O)[C@H](C(C)C)N(C)C(=O)[C@@H]1CC[C@@H](N=C=Nc3ccc(OC)cc3)C1)C(=O)N1CCC[C@H](N1)C(=O)OCC(C)(C)C2 [70 A and B] |  |  | 
> 10 |  | 0.1 to 1 µM and > 10 µM | > 10 | > 10 | > 10 | > 10 |  | CCn1c(-c2cnccc2COC)c2c3cc(ccc31)-c1cccc(c1)C[C@H](NC(=O)[C@H](C(C)C)N(C)C(=O)[C@H]1CC[C@H](N=C=Nc3ccc(OC)cc3)C1)C(=O)N1CCC[C@H](N1)C(=O)OCC(C)(C)C2 [71 A and B] |  | > 10 | 
 | > 10 |  |  | > 10 |  |  | > 10 | CCn1c(-c2cccnc2COC)c2c3cc(ccc31)-c1cc(O)cc(c1)C[C@H](NC(=O)[C@H](C(C)C)N(C)C(=O)CNC1=NCCO1)C(=O)N1CCC[C@H](N1)C(=O)OCC(C)(C)C2 [Compound 28] |  |  | 

Structure (SMILES) | IC50 [1] [µM] | IC50 [2] [µM] | IC50 [3] | IC50 [4] [µM] | IC50 [6] [µM] | IC50 [8] [µM] | IC50 [9] [µM] | IC50 [11] [µM] | IC50 [5] [µM] | IC50 [7] [µM] | EC50 [10] [µM]
CCn1c(-c2cccnc2[C@H](C)OC)c2c3cc(ccc31)-c1cc(O)cc(c1)C[C@H](NC(=O)[C@H](C(C)C)N(C)C(=O)N1CCN(C(=O)[C@@H]3CN3)CC1)C(=O)N1CCC[C@H](N1)C(=O)OCC(C)(C)C2 (atropisomer, axis not shown) [Compound 197] | 0.01 to 0.1 | 1 to 10 | 0.01 to 0.1 µM | 0.01 to 0.1 | 0.01 to 0.1 | 0.1 to 1 | 0.01 to 0.1 |  | 0.01 to 0.1 | 0.01 to 0.1 | 
CCn1c(-c2cccnc2[C@H](C)OC)c2c3cc(ccc31)-c1csc(n1)C[C@H](NC(=O)[C@H](C(C)C)N(C)C(=O)N1CC(N(C)C(=O)[C@H]3CN3)C1)C(=O)N1CCC[C@H](N1)C(=O)OCC(C)(C)C2 (atropisomer, axis not shown) [Compound 218] |  | 1 to 10 |  |  |  |  |  |  | 0.1 to 1 |  | < 5
